Measurements as given in US20120245121A1, “METHODS FOR IMPROVING BONE HEALTH IN INFANTS USING LONG CHAIN POLYUNSATURATED FATTY ACIDS” (ABBOTT LABORATORIES, priority 2011, published 2012).

Tests used:
Type in all cases: in vivo, Sprague-Dawley rats
rat offspring [1] = experiment: Micro-CT vertebra cortical architecture of rat offspring after maternal diet supplementation; details: adolescence
Experimental: Fifty 10-week-old pregnant Sprague-Dawley rats at the eleventh day of gestation (Charles Rivers Laboratories, Orleans Cedex, France) are housed under standardized environmental conditions (22° C., relative humidity of 50%, artificial lighting on for 12 hours/day) and are given free access to deionized water during the test period. The rats are randomly divided into five groups of feeding (n=10/group): (1) Control Group (“Control”), who receives a standard purified rodent diet (SPRD); […] (3) Prebiotic group (“Prebiotic”), who receives the SPRD containing 7.5% of the total carbohydrate as inulin-type fructans (Synergy-1®, Orafti, Belgium); […] During their suckling period, the pups receive only the dam's milk. […] Sacrifices of rat pups are carried out at birth, weaning and at the end of the adolescence period. The whole bone mineral density (BMD) and bone mineral content (BMC) of the skeleton are measured at birth and at weaning by using a pDEXA densitometer (Norland Corp., Fort Atkinson, Wis., USA). In adolescent offspring, the determination of BMC and BMD are analyzed in isolated bones (femur, tibia and vertebrae). Determination of the trabecular architecture parameters (trabecular thickness, separation and number), bone length and bone volume fraction (BV/TV) is analyzed by Micro-computed tomography (micro-CT). Micro-CT analysis is carried out by the Bone & Joint Research Group (University of Southampton, UK) and cortical parameters are performed by SCANCO Medical AG (Brüttisellen, Switzerland). In the present Example, femoral, tibia and vertebra cancellous bones are assessed using Metris (XTek) Benchtop 160Xi CT scanner (University of Southampton) and vertebra cortical bone is assessed using MicroCT-40 computed tomography system (Scanco Medical, Basserdorf, Switzerland). […] Micro-CT analysis also allows for the determination of various quality properties of the cortical bone. The bone fragility is influenced not only by the architecture but also by the tissue “quality”. The strength of a bone as an organ depends on the material properties of bone as a tissue. Stiffness, or the resistance of the whole bone to deformation by a load, is a key material property and requires a destructive mechanical technique if measurements are done in vivo. The non-destructive analysis of the volumetric bone mineral density of cortical bone (cortical vBMD) by micro CT has an approximately linear relationship with the stiffness of the cortical bone. Cortical thickness (C.Th) is one of the variables that helps to evaluate the modeling-derived changes provoked by growth. The cortical porosity (C.Sp) reflects the intracortical remodeling in the bone. […] Results are expressed as mean±SEM, and the probability level at which the differences are considered significant is set at p<0.05. […]

rat offspring [2] = experiment: Micro-CT trabecular architecture and bone length of rat offspring after maternal diet supplementation
Experimental: Fifty 10-week-old pregnant Sprague-Dawley rats at the eleventh day of gestation (Charles Rivers Laboratories, Orleans Cedex, France) are housed under standardized environmental conditions (22° C., relative humidity of 50%, artificial lighting on for 12 hours/day) and are given free access to deionized water during the test period. The rats are randomly divided into five groups of feeding (n=10/group): (1) Control Group (“Control”), who receives a standard purified rodent diet (SPRD); […] (3) Prebiotic group (“Prebiotic”), who receives the SPRD containing 7.5% of the total carbohydrate as inulin-type fructans (Synergy-1®, Orafti, Belgium); […] During their suckling period, the pups receive only the dam's milk. […] Sacrifices of rat pups are carried out at birth, weaning and at the end of the adolescence period. The whole bone mineral density (BMD) and bone mineral content (BMC) of the skeleton are measured at birth and at weaning by using a pDEXA densitometer (Norland Corp., Fort Atkinson, Wis., USA). In adolescent offspring, the determination of BMC and BMD are analyzed in isolated bones (femur, tibia and vertebrae). Determination of the trabecular architecture parameters (trabecular thickness, separation and number), bone length and bone volume fraction (BV/TV) is analyzed by Micro-computed tomography (micro-CT). Micro-CT analysis is carried out by the Bone & Joint Research Group (University of Southampton, UK) and cortical parameters are performed by SCANCO Medical AG (Brüttisellen, Switzerland). Micro-computed tomography (micro-CT) is a technique for the nondestructive assessment and analysis of the three-dimensional trabecular and cortical bone structural properties. Scanning with micro-CT can be achieved at resolutions as low as 5 μm, allowing for the determination of porosities and subtle modeling and remodeling events of the bone tissue. Furthermore, true three-dimensional image reconstructions permit the assessment of bone microarchitecture as a three dimensional structure, providing critical information to images collected through histomorphometry. In the present Example, femoral, tibia and vertebra cancellous bones are assessed using Metris (XTek) Benchtop 160Xi CT scanner (University of Southampton) and vertebra cortical bone is assessed using MicroCT-40 computed tomography system (Scanco Medical, Basserdorf, Switzerland). […] Results are expressed as mean±SEM, and the probability level at which the differences are considered significant is set at p<0.05. One-way ANOVA is used to evaluate differences attributable to the diet in the different markers, previously testing the homogeneity of variances by Levene's. A posteriori post hoc tests are carried out by the Dunnet test.

rat offspring [3] = experiment: pDEXA bone mineral density (BMD) and bone mineral content (BMC) of rat offspring after maternal diet supplementation; details: for lumbar vertebra BMC with respect to Control group / lumbar vertebra BMD with respect to Control group: adolescence
Experimental: Fifty 10-week-old pregnant Sprague-Dawley rats at the eleventh day of gestation (Charles Rivers Laboratories, Orleans Cedex, France) are housed under standardized environmental conditions (22° C., relative humidity of 50%, artificial lighting on for 12 hours/day) and are given free access to deionized water during the test period. The rats are randomly divided into five groups of feeding (n=10/group): (1) Control Group (“Control”), who receives a standard purified rodent diet (SPRD); […] (3) Prebiotic group (“Prebiotic”), who receives the SPRD containing 7.5% of the total carbohydrate as inulin-type fructans (Synergy-1®, Orafti, Belgium); […] During their suckling period, the pups receive only the dam's milk. […] Sacrifices of rat pups are carried out at birth, weaning and at the end of the adolescence period. The whole bone mineral density (BMD) and bone mineral content (BMC) of the skeleton are measured at birth and at weaning by using a pDEXA densitometer (Norland Corp., Fort Atkinson, Wis., USA). In adolescent offspring, the determination of BMC and BMD are analyzed in isolated bones (femur, tibia and vertebrae). Determination of the trabecular architecture parameters (trabecular thickness, separation and number), bone length and bone volume fraction (BV/TV) is analyzed by Micro-computed tomography (micro-CT). Micro-CT analysis is carried out by the Bone & Joint Research Group (University of Southampton, UK) and cortical parameters are performed by SCANCO Medical AG (Brüttisellen, Switzerland). DEXA scan is a technique used in the clinical practice for the analysis of bone health. Two main bone properties can be measured by this technique: Bone Mineral Content (BMC) and areal Bone Mineral Density (BMD). BMC determines the mass of mineral present in the whole body or in the selected skeletal region. BMC changes reflect the result of the metabolic “mass” balance between bone formation and bone destruction. BMC represented relative to the projected bone area refers to BMD. […] The manufacturer's software for research in small animals calculates BMC and BMD for the isolated bone. Femur is measured from the femoral neck to the knee joint. Tibia is measured from the knee joint to the joint between tibia and calcaneus, also including fibula. […] Results are expressed as mean±SEM, and the probability level at which the differences are considered significant is set at p<0.05. One-way ANOVA is used to evaluate differences attributable to the diet in the different markers, previously testing the homogeneity of variances by Levene's. A posteriori post hoc tests are carried out by the Dunnet test.

[4] = at delivery, appendicular bones

O=C([O-])[O-].[Ca+2] [Calcium, calcium carbonate] was tested, and the vertebra cortical porosity (rat offspring [1]) was “decrease”, the “vertebra cortical vBMD” value (rat offspring [1]) was “increase” and the vertebrae cortical thickness (rat offspring [1]) was “without significantly affecting”. For the same compound, the “vertebra BV/TV enhanced in comparison with Control group” value (rat offspring [2]; adolescence) was 22%, the “vertebra trabecular separation respective to Control group” value (rat offspring [2]; adolescence) was “significant decrease” and the “vertebra trabecular thickness enhanced in comparison with Control group” value (rat offspring [2]; adolescence) was 17%. The “trabecular number of femur and tibia vs Control group” value (rat offspring [2]; [4]) was “greater”, the “trabecular thickness of femur and tibia vs Control group” value (rat offspring [2]; [4]) was “lower” and the “femur length represented versus body weight” value (rat offspring [2]; at delivery, no difference to Control group) was 0.572±0.04. The “trabecular separation of femur and tibia vs Control group” value (rat offspring [2]; at delivery, statistical differences not achieved) was “decrease”, the “increase in vertebra trabecular thickness respective to Control group” value (rat offspring [2]; at weaning) was ~30% and the “vertebra BV/TV ratio respective to Control group” value (rat offspring [2]; at weaning) was “statistically different”. The “vertebra trabecular separation respective to Control group” value (rat offspring [2]; at weaning) was “statistically different”, the “lumbar vertebra BMC with respect to Control group” value (rat offspring [3]) was “no differences” and the “lumbar vertebra BMD with respect to Control group” value (rat offspring [3]) was “no differences”.

For Vitamin D, the vertebra cortical features (rat offspring [1]) was “does not show any improvement”, the “vertebra structural parameters (BV/TV, trabecular thickness)” value (rat offspring [2]; adolescence) was “No effect” and the “lumbar vertebra BMC with respect to Control group” value (rat offspring [3]) was “no differences”. For the same compound, the “lumbar vertebra BMD with respect to Control group” value (rat offspring [3]) was “no differences” and the “whole body BMC relative to Control group” value (rat offspring [3]; at weaning) was “lower”.
